# Data from patent US6900315B2, “2-amino-9H-purin-9-yl compounds and methods for inhibiting/treating HIV infections and AIDS related symptoms” (Yale University, priority 2001, dated 2005).
# Where two headings read alike, the source gives them in different places.
# Tests used:
# HEP-G2 = assay: Toxicity, dye based cell growth assay, HEP-G2; conditions: Homo sapiens, HepG2, 120 h, read-out: IC50 (inhibited 50% of the cell growth)
# Procedure: (§1) To determine the toxicity of the compounds to various cell lines (Table 1, below), a similar dye based assay is performed in the absence of HIV. The toxicity of the compounds alone therefore was determined.
# MT-2 = assay: Toxicity, dye based cell growth assay in absence of HIV, MT-2; conditions: Homo sapiens, MT2, 120 h, read-out: IC50 (inhibited 50% of the cell growth)
# Procedure: as §1
# KB = assay: Toxicity, dye based cell growth assay, KB; conditions: Homo sapiens, 120 h
# Procedure: as §1
# HeLa = assay: Toxicity, dye based cell growth assay, HeLa; conditions: Homo sapiens, 120 h
# Procedure: as §1
# [1] = tested on: mitochondrial DNA in CEM cells; assay: Mitochondrial toxicity: ratio of mitochondrial DNA to Alu repeat in CEM cells; type: cell-based; conditions: 8 days
# Description: After 8 days of growth the cells were lysed and probed for the amount of mitochondrial DNA and normalized for differences in the amount of total DNA by probing for the Alu repeat. By comparing the amount of mitochondrial DNA to the amount of Alu repeat the % decrease in mitochondrial DNA in the presence of various concentrations of drug can be obtained. All experiments were done in triplicate. Techniques which are presented here have been previously described in Chen and Cheng, J. Biol. Chem., vol. 264, 11934-7 (1989).
# CEM = assay: Toxicity, dye based cell growth assay, CEM; conditions: Homo sapiens, CCRF-CEM, 120 h, read-out: IC50 (inhibited 50% of the cell growth)
# Procedure: as §1
# HIV IIIB = assay: Anti-HIV activity in MT-2 cells infected with HIV IIIB, MTT dye cell viability; type: cell-based; conditions: read-out: EC50 (concentration necessary to save 50% of the cells)
# Procedure: To assess the ability of the compounds according to the present invention to inhibit viral infection relative to other compounds experiments were performed in the MT-2 cell line, as previously described by Larder, et al., Antimicrobial Agents & Chemotherapy, vol. 34, 436 (1990). […] Cells were infected at an initial multiplicity of infection (MOI) of 0.1 and grown for 5 days. Cell viability was assessed by the use of dye metabolized by viable cells.
# HIV [2] = conditions: pairs: D4T and AZT, 3TC and ddC, FD4C and 3TC, abacavir and cyclo D4G; Bridges et al., Dutschman et al.; cited from earlier work
# HIV [3] = assay: Anti-HIV drug combination (synergy, isobologram of FEC50) in cell culture; type: cell-based; conditions: FIG. 4, D4T with AZT data not shown
# Procedure: Points on this line represent the compounds working independently.
# In an attempt to understand how D4G prodrugs of the present invention would interact with other clinically approved compounds, experiments were performed with drug combinations. […] Points on the line represent two compounds working independently. […] See, Bridges, et al., Biochem. Pharmacol., 51, 731 (1996) and Dutschman, et al., Antimicro. Agents Chemother. 42, 1799 (1998).
# [4] = molecular target: T1, mitochondrial polymerase gamma (Homo sapiens, UniProt P54098); assay: Nucleotide incorporation by mitochondrial polymerase gamma into an elongating DNA strand; type: biochemical; conditions: mitochondrial polymerase gamma, incorporation
# T1 sequence (P54098 1-1239): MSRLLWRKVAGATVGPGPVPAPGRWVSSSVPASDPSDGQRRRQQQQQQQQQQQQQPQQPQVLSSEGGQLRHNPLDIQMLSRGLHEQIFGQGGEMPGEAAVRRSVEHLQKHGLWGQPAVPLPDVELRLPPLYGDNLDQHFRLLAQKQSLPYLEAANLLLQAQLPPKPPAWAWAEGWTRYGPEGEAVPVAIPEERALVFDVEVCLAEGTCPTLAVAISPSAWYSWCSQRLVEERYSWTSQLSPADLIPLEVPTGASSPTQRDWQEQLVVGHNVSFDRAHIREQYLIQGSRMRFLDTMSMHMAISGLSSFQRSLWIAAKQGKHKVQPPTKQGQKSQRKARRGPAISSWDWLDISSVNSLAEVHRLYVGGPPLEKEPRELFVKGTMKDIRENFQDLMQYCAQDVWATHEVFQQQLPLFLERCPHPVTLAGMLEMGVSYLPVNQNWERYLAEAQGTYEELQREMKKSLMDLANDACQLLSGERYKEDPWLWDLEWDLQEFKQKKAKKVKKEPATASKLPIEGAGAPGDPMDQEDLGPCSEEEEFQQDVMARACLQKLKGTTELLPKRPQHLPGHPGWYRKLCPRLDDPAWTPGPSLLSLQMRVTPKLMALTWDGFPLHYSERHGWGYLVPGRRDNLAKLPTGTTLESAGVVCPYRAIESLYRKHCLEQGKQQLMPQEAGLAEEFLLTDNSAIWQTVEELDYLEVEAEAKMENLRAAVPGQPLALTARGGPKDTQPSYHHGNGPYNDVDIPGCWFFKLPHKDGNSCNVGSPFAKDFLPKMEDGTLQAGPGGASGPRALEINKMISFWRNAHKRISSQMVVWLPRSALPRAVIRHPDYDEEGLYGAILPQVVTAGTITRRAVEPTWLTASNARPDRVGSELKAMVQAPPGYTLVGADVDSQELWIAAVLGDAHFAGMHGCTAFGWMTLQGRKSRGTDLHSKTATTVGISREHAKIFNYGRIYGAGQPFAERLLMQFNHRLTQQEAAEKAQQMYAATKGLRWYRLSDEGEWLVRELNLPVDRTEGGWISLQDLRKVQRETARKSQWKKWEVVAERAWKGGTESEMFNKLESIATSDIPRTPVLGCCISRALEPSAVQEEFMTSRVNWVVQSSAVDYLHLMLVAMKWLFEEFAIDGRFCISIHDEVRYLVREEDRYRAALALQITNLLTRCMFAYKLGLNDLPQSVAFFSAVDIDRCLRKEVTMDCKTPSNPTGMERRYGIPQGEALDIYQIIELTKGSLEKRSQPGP
# [5] = HEP-G2, hepatoma cell line, 5 days
# [6] = MT-2, HTLV infected T cell line, 5 days
# [7] = read-out: IC50 (inhibited 50% of the cell growth), oral carcinoma, 5 days
# [8] = read-out: IC50 (inhibited 50% of the cell growth), cervical cancer cell line, 5 days
# [9] = Human immunodeficiency virus 1, MT2, 120 h, MT-2 cells, HIV IIIB, MOI 0.1, 5 days, MTT, NA = No Activity at concentrations up to 100 uM, EC50 not achievable due to toxicity
# [10] = read-out: IC50 (inhibited 50% of the cell growth)
smiles,measurement,setting,value
"Nc1ccn([C@H]2CC[C@@H](CO)O2)c(=O)n1 [DdC, 2′,3′ dideoxycytodine]",IC50,HEP-G2; [5],25 ± 2 µM
same,IC50,MT-2; [6],2 ± 0.3 µM
same,IC50,KB; [7],100 ± 11 µM
same,IC50,HeLa; [8],> 100 µM
same,% Control (mtDNA/Alu),"[1]; human, 0.01 μM",87%
same,Ration of mtDNA/Alu,"[1]; human, 0.01 μM",0.93 ± 0.06
same,% Control (mtDNA/Alu),"[1]; human, 0.1 μM",65%
same,Ration of mtDNA/Alu,"[1]; human, 0.1 μM",0.70 ± 0.04
same,% Control (mtDNA/Alu),"[1]; human, 1 μM",3%
same,Ration of mtDNA/Alu,"[1]; human, 1 μM",0.03 ± 0.01
same,IC50,"CEM; CEM, T cell line, 5 days",3 ± 1 µM
same,EC50,HIV IIIB; [9],0.3 ± 0.05 µM
"OC[C@@H]1CC[C@H](n2cnc3c(O)ncnc32)O1 [DdI, 2′,3′ dideoxyinosine]",IC50,HEP-G2; [5],> 500 µM
same,IC50,MT-2; [6],> 100 µM
same,IC50,KB; [7],> 500 µM
same,IC50,HeLa; [8],500 ± 33 µM
same,IC50,"CEM; CEM, T cell line, 5 days",> 500 µM
same,EC50,HIV IIIB; [9],20 ± 6 µM
Nc1nc(=O)n([C@@H]2C=C[C@H](CO)O2)cc1F [FD4C],anti-HIV interaction of two analogs of the same base,HIV [2],not synergistic
"Cc1cn([C@H]2C=C[C@@H](CO)O2)c(=O)[nH]c1=O [d4T, 2′,3′-didehydro-2′,3′-dideoxythymidine]",IC50,HEP-G2,390 ± 26 µM
same,IC50,MT-2,> 100 µM
same,IC50,KB; [10],450 ± 47 µM
same,anti-HIV interaction of two analogs of the same base,HIV [2],not synergistic
same,IC50,HeLa; [10],480 ± 31 µM
same,anti-HIV interaction in combination with AZT,HIV [3],only additive
same,% Control (mtDNA/Alu),"[1]; compound 1 μM, CEM cells",110%
same,Ration of mtDNA/Alu,"[1]; compound 1 μM, CEM cells",1.18 ± 0.03
same,% Control (mtDNA/Alu),"[1]; compound 10 μM, CEM cells",94%
same,Ration of mtDNA/Alu,"[1]; compound 10 μM, CEM cells",1.00 ± 0.02
same,% Control (mtDNA/Alu),"[1]; compound 200 μM, CEM cells",21%
same,Ration of mtDNA/Alu,"[1]; compound 200 μM, CEM cells",0.22 ± 0.03
same,IC50,CEM,190 ± 30 µM
same,EC50,"HIV IIIB; Human immunodeficiency virus 1, IIIB, MT2, 120 h",3 ± 0.7 µM
Cc1cn([C@H]2C[C@H](O)[C@@H](COP(=O)(O)OP(=O)(O)OP(=O)(O)O)O2)c(=O)[nH]c1=O [dTTP],Kd,[4],0.6 ± 0.16 µM
same,kpol,[4],25 ± 2 s⁻¹
same,kpol/Kd,[4],3.9e+07 ± 1.3e+07 M⁻¹ s⁻¹
